Measurements: ChEMBL document CHEMBL4725298, “Exploration of piperazine-derived thioureas as antibacterial and anti-inflammatory agents. In vitro evaluation against clinical isolates of colistin-resistant Acinetobacter baumannii” (Bioorg Med Chem Lett, 2020)
In brackets after ≈: the same amount, converted by molar mass. Activity calls are given as the source filed them. No cut-off for these calls is given here.

Tests used:
Acinetobacter baumannii [1] = test: Antibacterial activity against colistin-resistant Acinetobacter baumannii 21R assessed as reduction in bacterial growth incubated for 24 hrs by standard broth microdilution method; type: functional
Acinetobacter baumannii [2] = test: Antibacterial activity against colistin-resistant Acinetobacter baumannii 24 assessed as reduction in bacterial growth incubated for 24 hrs by standard broth microdilution method; type: functional
Acinetobacter baumannii [3] = test: Antibacterial activity against colistin-resistant Acinetobacter baumannii 17 assessed as reduction in bacterial growth incubated for 24 hrs by standard broth microdilution method; type: functional
RAW264.7 [4] = test: Antiinflammatory activity against mouse RAW264.7 cells assessed as reduction in LPS-induced NO production at 50 uM incubated for 24 hrs by Griess assay; type: functional, cell-based
Acinetobacter baumannii [5] = test: Antibacterial activity against colistin-resistant Acinetobacter baumannii 11 assessed as reduction in bacterial growth incubated for 24 hrs by standard broth microdilution method; type: functional
Acinetobacter baumannii [6] = test: Antibacterial activity against colistin-resistant Acinetobacter baumannii 14 assessed as reduction in bacterial growth incubated for 24 hrs by standard broth microdilution method; type: functional
Acinetobacter baumannii [7] = test: Antibacterial activity against colistin-resistant Acinetobacter baumannii 22P assessed as reduction in bacterial growth incubated for 24 hrs by standard broth microdilution method; type: functional
RAW264.7 [8] = test: Antiinflammatory activity against mouse RAW264.7 cells assessed as reduction in LPS-induced NO production at 1 to 10 uM incubated for 24 hrs by Griess assay relative to control; type: functional; settings: dose microM 1-10
Acinetobacter baumannii [9] = test: Antibacterial activity against Acinetobacter baumannii 21R assessed as fractional inhibitory concentration incubated for 24 hrs by standard broth microdilution method relative to control; type: functional
Acinetobacter baumannii [10] = test: Antibacterial activity against Acinetobacter baumannii 22P assessed as fractional inhibitory concentration incubated for 24 hrs by standard broth microdilution method relative to control; type: functional
[11] = Cytotoxicity against human A549 cells; type: cell-based
RAW264.7 [12] = test: Cytotoxicity against mouse RAW264.7 cells assessed as reduction in cell viability at 1 to 10 uM incubated for 24 hrs; type: cell-based; settings: raw264.7, 24 h, dose 1-10 µM
Acinetobacter baumannii [13] = test: Synergistic antibacterial activity against Acinetobacter baumannii 22P assessed as fractional inhibitory concentration index incubated for 24 hrs in presence of colistin by standard broth microdilution method; type: functional
Acinetobacter baumannii [14] = test: Bactericidal activity against colistin-resistant Acinetobacter baumannii 22P at 12.5 to 50 uM incubated upto 24 hrs by time kill curve based analysis; type: functional, organism-based; settings: dose microM 12.5-50, time hrs <=24
Acinetobacter baumannii [15] = test: Bactericidal activity against colistin-resistant Acinetobacter baumannii 21R at 4 times of MIC incubated for 4 hrs by time kill curve based analysis; type: functional, organism-based
Acinetobacter baumannii [16] = test: Bactericidal activity against colistin-resistant Acinetobacter baumannii 21R assessed as log10 reduction of bacterial colony forming unit at 2 times of MIC incubated for 4 hrs by time kill curve based analysis; type: functional
Acinetobacter baumannii [17] = test: Synergistic antibacterial activity against Acinetobacter baumannii 21R assessed as fractional inhibitory concentration index incubated for 24 hrs in presence of colistin by standard broth microdilution method; type: functional
Acinetobacter baumannii [18] = test: Potentiation of colistin-induced antibacterial activity against Acinetobacter baumannii 22P assessed as fold reduction in colistin MIC incubated for 24 hrs by standard broth microdilution method; type: functional
Acinetobacter baumannii [19] = test: Antibacterial activity against Acinetobacter baumannii 22P assessed as reduction in bacterial growth in presence of colistin incubated for 24 hrs by standard broth microdilution method; type: functional
Acinetobacter baumannii [20] = test: Potentiation of colistin-induced antibacterial activity against Acinetobacter baumannii 21R assessed as fold reduction in colistin MIC incubated for 24 hrs by standard broth microdilution method; type: functional
Acinetobacter baumannii [21] = test: Antibacterial activity against Acinetobacter baumannii 21R assessed as reduction in bacterial growth in presence of colistin incubated for 24 hrs by standard broth microdilution method; type: functional

Row | Compound | inhibition (RAW264.7 [4]) | inhibition (INH) (RAW264.7 [8]) | MIC (Acinetobacter baumannii [1]) [µM] | MIC (Acinetobacter baumannii [2]) [µM] | MIC (Acinetobacter baumannii [7]) [µM] | MIC (Acinetobacter baumannii [6]) [µM] | CC50 [11] [µM] | further results
1 | CC1CN(C(=O)Cc2ccccc2)CCN1C(=S)Nc1ccc(C(F)(F)F)cc1 (stereo not drawn) | Active | – | – | – | – | – | – | Activity (Acinetobacter baumannii [1]): inactive; Activity (Acinetobacter baumannii [2]): inactive; Activity (Acinetobacter baumannii [3]): inactive; Activity (Acinetobacter baumannii [5]): inactive; Activity (Acinetobacter baumannii [6]): inactive; Activity (Acinetobacter baumannii [7]): inactive
2 | CC1CN(C(=O)CC2CCCCC2)CCN1C(=S)Nc1ccc(C#N)cc1 (stereo not drawn) | Active | – | – | – | – | – | – | Activity (Acinetobacter baumannii [1]): inactive; Activity (Acinetobacter baumannii [2]): inactive; Activity (Acinetobacter baumannii [3]): inactive; Activity (Acinetobacter baumannii [5]): inactive; Activity (Acinetobacter baumannii [6]): inactive; Activity (Acinetobacter baumannii [7]): inactive
3 | CC1CN(C(=O)Cc2ccccc2)CCN1C(=S)Nc1ccc(Cl)cc1 (stereo not drawn) | Active | – | – | – | – | – | – | Activity (Acinetobacter baumannii [1]): inactive; Activity (Acinetobacter baumannii [2]): inactive; Activity (Acinetobacter baumannii [3]): inactive; Activity (Acinetobacter baumannii [5]): inactive; Activity (Acinetobacter baumannii [6]): inactive; Activity (Acinetobacter baumannii [7]): inactive
4 | CC(C)(C)CC(=O)N1CCN(C(=S)Nc2cc(C(F)(F)F)cc(C(F)(F)F)c2)C(c2ccccc2)C1 (stereo not drawn) | Active | >=80% | 3.12 (≈ 1.66 µg/mL) | 3.12 (≈ 1.66 µg/mL) | 3.12 (≈ 1.66 µg/mL) | – | – | MIC (Acinetobacter baumannii [5]): 3.12 µM (≈ 1.66 µg/mL)
5 | COLISTIN | – | – | 1770 | 7 | 3540 | 56 | – | FIC (Acinetobacter baumannii [9]): 0.38; FIC (Acinetobacter baumannii [10]): 0.25; MIC (Acinetobacter baumannii [3]): > 111 µM; MIC (Acinetobacter baumannii [5]): 14 µM
6 | O=C(Cc1ccccc1)N1CCN(C(=S)Nc2cc(C(F)(F)F)cc(C(F)(F)F)c2)C(c2ccccc2)C1 (stereo not drawn) | Active | – | – | – | – | – | – | MIC (Acinetobacter baumannii [3]): 3.12 µM (≈ 1.72 µg/mL)
7 | C[C@@H]1CN(C(=O)CC(C)(C)C)CCN1C(=S)Nc1cc(C(F)(F)F)cc(C(F)(F)F)c1 | – | – | 6.25 (≈ 2.93 µg/mL) | 6.25 (≈ 2.93 µg/mL) | 12.5 (≈ 5.87 µg/mL) | – | 162 | –
8 | CC1CN(C(=O)OC(C)(C)C)CCN1C(=S)Nc1cc(C(F)(F)F)cc(C(F)(F)F)c1 (stereo not drawn) | Active | 40% | – | – | – | 3.12 (≈ 1.47 µg/mL) | 112 | –
9 | CC1CN(C(=O)CC2CCCCC2)CCN1C(=S)Nc1ccc([N+](=O)[O-])cc1 (stereo not drawn) | Active | – | 25 (≈ 10.1 µg/mL) | – | 12.5 (≈ 5.06 µg/mL) | – | – | Activity (Acinetobacter baumannii [2]): inactive; Activity (Acinetobacter baumannii [3]): inactive; Activity (Acinetobacter baumannii [5]): inactive; Activity (Acinetobacter baumannii [6]): inactive
10 | CC1CN(C(=O)CC2CCCCC2)CCN1C(=S)Nc1ccc(Cl)cc1 (stereo not drawn) | – | – | 12.5 (≈ 4.92 µg/mL) | 25 (≈ 9.85 µg/mL) | 12.5 (≈ 4.92 µg/mL) | 50 (≈ 19.7 µg/mL) | 200 | –
11 | CC1CN(C(=O)CC(C)(C)C)CCN1C(=S)Nc1cc(C(F)(F)F)cc(C(F)(F)F)c1 (racemic) | Active | 40% | 6.25 (≈ 2.93 µg/mL) | 6.25 (≈ 2.93 µg/mL) | 6.25 (≈ 2.93 µg/mL) | 50 (≈ 23.5 µg/mL) | 73.2 | –
12 | O=C(CC1CCCCC1)N1CCN(C(=S)Nc2cc(C(F)(F)F)cc(C(F)(F)F)c2)C(c2ccccc2)C1 (stereo not drawn) | Active | >=80% | 3.12 (≈ 1.74 µg/mL) | 3.12 (≈ 1.74 µg/mL) | 6.25 (≈ 3.49 µg/mL) | – | 125 | MIC (Acinetobacter baumannii [5]): 3.12 µM (≈ 1.74 µg/mL); Activity (RAW264.7 [12]): Toxic
13 | CC(C)(C)OC(=O)N1CCN(C(=S)Nc2cc(C(F)(F)F)cc(C(F)(F)F)c2)C(c2ccccc2)C1 (stereo not drawn) | Active | >=80% | – | – | – | 12.5 (≈ 6.67 µg/mL) | 127 | MIC (Acinetobacter baumannii [3]): 6.25 µM (≈ 3.33 µg/mL); Activity (RAW264.7 [12]): Toxic
14 | CC1CN(C(=O)CC2CCCCC2)CCN1C(=S)Nc1cc(C(F)(F)F)cc(C(F)(F)F)c1 (stereo not drawn) | Active | 40% | 3.12 (≈ 1.55 µg/mL) | 25 (≈ 12.4 µg/mL) | 1.56 (≈ 0.773 µg/mL) | 50 (≈ 24.8 µg/mL) | 82 | –
15 | CC1CN(C(=O)Cc2ccccc2)CCN1C(=S)Nc1cc(C(F)(F)F)cc(C(F)(F)F)c1 (stereo not drawn) | Active | – | 3.12 (≈ 1.53 µg/mL) | 6.25 (≈ 3.06 µg/mL) | – | 3.12 (≈ 1.53 µg/mL) | 130 | MIC (Acinetobacter baumannii [3]): 3.12 µM (≈ 1.53 µg/mL); MIC (Acinetobacter baumannii [5]): 6.25 µM (≈ 3.06 µg/mL)
16 | CC(C)(C)OC(=O)N1CCN(C(=S)Nc2cc(C(F)(F)F)cc(C(F)(F)F)c2)CC1 | Active | – | 6.25 (≈ 2.86 µg/mL) | – | 12.5 (≈ 5.72 µg/mL) | 6.25 (≈ 2.86 µg/mL) | 109 | fractional inhibitory concentration index (FICI) (Acinetobacter baumannii [13]): 0.37; FIC (Acinetobacter baumannii [9]): 0.12; FIC (Acinetobacter baumannii [10]): 0.12; Activity (Acinetobacter baumannii [14]): inactive; Activity (Acinetobacter baumannii [15]): Active; MIC (Acinetobacter baumannii [3]): 6.25 µM (≈ 2.86 µg/mL); Activity (Acinetobacter baumannii [16]): 3 log10CFU/ml; fractional inhibitory concentration index (FICI) (Acinetobacter baumannii [17]): 0.5; MIC (Acinetobacter baumannii [5]): 12.5 µM (≈ 5.72 µg/mL); fold change (FC) (Acinetobacter baumannii [18]): 4; MIC (Acinetobacter baumannii [19]): 1.56 µM; fold change (FC) (Acinetobacter baumannii [20]): 4; MIC (Acinetobacter baumannii [21]): 0.78 µM
17 | C[C@H]1CN(C(=O)CC(C)(C)C)CCN1C(=S)Nc1cc(C(F)(F)F)cc(C(F)(F)F)c1 | – | – | 6.25 (≈ 2.93 µg/mL) | 12.5 (≈ 5.87 µg/mL) | 6.25 (≈ 2.93 µg/mL) | – | 73.5 | –
18 | CC1CN(C(=O)CC2CCCCC2)CCN1C(=S)Nc1ccc(C(F)(F)F)cc1 (stereo not drawn) | – | – | 25 (≈ 10.7 µg/mL) | 3.12 (≈ 1.33 µg/mL) | 6.25 (≈ 2.67 µg/mL) | 12.5 (≈ 5.34 µg/mL) | – | –
